# Source: EP0636624A1, “Thiazole derivatives as lipoxygenase inhibitors” (ZENECA LIMITED, priority 1993, dated 1995)
# Key:
# [1] = system: hepatic enzymes; assay: Auto-induction on repeated dosing (fall in C max / AUC); format: in vivo; conditions: repeated dosing to a warm-blooded animal
# Source text: The result is a decrease on repeat dosing of the quantity of the compound present in the animal's blood stream as shown, for example, by a decrease in the maximum concentration achieved (C max) or, for example, a decrease in the exposure of the animal to the compound as measured by the area under the curve (AUC) of a plot of the concentration of the compound in the blood stream versus time after dosing.
# [2] = biological target: T1, 5-LO (Homo sapiens, UniProt P09917); assay: Test a): in vitro heparinised human blood challenged with calcium ionophore A23187, LTB4 radioimmunoassay; format: cell-based; conditions: heparinised human blood, A23187 challenge; read-out: IC₅₀ against LTB₄ in test a)
# T1 construct: incubating a test compound with heparinised human blood, prior to challenge with the calcium ionophore A23187; endogenous in cells; host or cells: blood cells of heparinised human whole blood
# T1 sequence (P09917 1-674): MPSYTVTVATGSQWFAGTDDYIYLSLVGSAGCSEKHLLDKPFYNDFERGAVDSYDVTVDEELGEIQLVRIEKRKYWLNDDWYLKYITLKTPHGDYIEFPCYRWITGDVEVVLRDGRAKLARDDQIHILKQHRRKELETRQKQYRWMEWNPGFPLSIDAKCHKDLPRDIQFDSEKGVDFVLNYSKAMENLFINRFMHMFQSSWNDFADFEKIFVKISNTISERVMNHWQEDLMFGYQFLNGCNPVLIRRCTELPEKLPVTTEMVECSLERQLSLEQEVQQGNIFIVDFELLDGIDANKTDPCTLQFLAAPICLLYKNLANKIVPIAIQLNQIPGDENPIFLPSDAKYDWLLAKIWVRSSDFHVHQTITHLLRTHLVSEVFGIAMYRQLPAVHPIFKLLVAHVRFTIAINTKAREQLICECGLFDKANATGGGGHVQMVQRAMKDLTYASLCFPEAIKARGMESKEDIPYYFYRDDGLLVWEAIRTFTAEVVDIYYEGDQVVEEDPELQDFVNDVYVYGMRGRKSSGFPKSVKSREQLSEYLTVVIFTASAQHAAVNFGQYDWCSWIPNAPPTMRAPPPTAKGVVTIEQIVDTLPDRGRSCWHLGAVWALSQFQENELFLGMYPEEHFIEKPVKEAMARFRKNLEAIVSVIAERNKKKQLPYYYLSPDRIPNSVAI
# Source text: As stated previously, the compounds of the formula I are inhibitors of the enzyme 5-LO. […] J. Pharmacol. 1985, 84, 34P) which involve the use of a protein-LTB₄ conjugate produced using the procedure of Young et alia (Prostaglandins, 1983, 26(4), 605-613). The effects of a test compound on the enzyme cyclooxygenase (which is involved in the alternative metabolic pathway for arachidonic acid and gives rise to prostaglandins, thromboxanes and related metabolites) may be measured at the same time using the specific radioimmunoassay for thromboxane B₂(TxB₂) described by Carey and Forder (see above). This test provides an indication of the effects of a test compound against 5-LO and also cyclooxygenase in the presence of blood cells and proteins. It permits the selectivity of the inhibitory effect on 5-LO or cyclooxygenase to be assessed. • b) An ex vivo assay system, which is a variation of test a) above, involving administration to a group of rats of a test compound (usually orally as the suspension produced when a solution of the test compound in dimethylsulphoxide is added to carboxymethylcellulose), blood collection, heparinisation, challenge with A23187 and radioimmunoassay of LTB₄ and TxB₂. […]
# [3] = system: 5-LO; assay: Test c): in vivo zymosan-induced LTB4 liberation in rat subcutaneous air pouch; design: species or system male rats; conditions: oral, approximate value, 180 min
IC50 [2] [nM],Compound,auto-induction [1],IC₅₀ against LTB₄ in test c) [3]
–,"COC1(c2ccc(Sc3ccc4c(c3)CCC(=O)N4C)s2)CCOCC1 [4-methoxy-4-[5-(1-methyl-2-oxo-1,2,3,4-tetrahydroquinolin-6-ylthio)-thien-2-yl]tetrahydropyran]",possesses the undesirable property of auto-induction,–
60,"CO[C@]1(c2cnc(Sc3ccc4c(c3)CCC(=O)N4C)s2)CCO[C@@H](C)C1 [Example 3, (2S,4R)-4-methoxy-2-methyl-4-[2-(1-methyl-2-oxo-1,2,3,4-tetrahydroquinolin-6-ylthio)thiazol-5-yl]tetrahydropyran]",–,approximately 0.2 mg/kg
